Measured values as given in patent US20250360137A1, “ENHANCEMENT OF THE EFFICACY OF SEROTONERGIC PSYCHEDELIC DRUGS IN THE TREATMENT OR PREVENTION OF CERTAIN NEUROPSYCHIATRIC DISORDERS THROUGH INHIBITION OF TYPE-9 PHOSPHODIESTERASES” (Freedom Biosciences, Inc., priority 2022, published 2025).

Test system: C57B6/J mice
Assay: Psilocybin induced head twitch response (HTR) in mice, automated system with implanted ear magnets
Type: in vivo
Method: Illustrated herein is a dose-dependent decrease in hallucinogenic response (head-twitch response, HTR) to psilocybin administration by adding a PDE9 inhibitor.
In this experiment, it was determined whether the number of head twitches in 10 minutes in response to psilocybin administration in 7-10 week old C57B6/J mice (equal numbers of male and female) were reduced by PF-4447943, a prototypical PDE9 inhibitor. The experiment began with the mice receiving a 20-minute pretreatment with PF-4447943 or its associated vehicle (5% Cremophor, 5% dimethyl sulfoxide (DMSO), and 90% saline) followed by the test dose of psilocybin. Head twitch was assessed for 10 minutes in an automated system using implanted magnets in the mouse's ears. At least one week elapsed prior to reuse, and mice were used maximally twice. […] For instance, average HTR over 10 min in mice receiving 3 mg/kg psilocybin and no PF-4447943 was about 30, while average HTR over 10 min in mice receiving 3 mg/kg psilocybin plus 3 mg/kg PF-4447943 was about 20.
In another experiment, a psilocybin dose-response curve was generated in the presence and absence of a fixed dose of pre-administered PF-4447943. FIG. 2 depicts the results of HTR in mice receiving administration of a fixed dose of PF-4447943 (3 mg/kg IP) and various doses of psilocybin (0, 0.3, 1, 3, 10 mg/kg IP), in comparison with administration of psilocybin plus the PF-4447943 vehicle alone as a control.

## C[C@@H]1CN(Cc2ncccn2)C[C@H]1c1nc2c(cnn2C2CCOCC2)c(=O)[nH]1 [PF-4447943, 6-[(3S,4S)-4-methyl-1-(pyrimidin-2-ylmethyl)pyrrolidin-3-yl]-1-(tetrahydro-2H-pyran-4-yl)-1,5-dihydro-4H-pyrazolo[3,4-d]pyrimidin-4-one]
20-minute pretreatment, head twitch assessed for 10 minutes, FIG. 1
  HTR after psilocybin following pretreatment with PF-4447943 compared to pretreatment with the PF-4447943 vehicle: reduced
Mice receiving 3 mg/kg psilocybin plus 3 mg/kg PF-4447943 (20-minute pretreatment), FIG. 1
  average HTR over 10 min: about 20
Pretreatment with 3 mg/kg PF-4447943 IP, across all doses of psilocybin (0, 0.3, 1, 3, 10 mg/kg IP) vs psilocybin plus vehicle, FIG. 2
  reduction of HTR: about 40%

## CN(C)CCc1c[nH]c2cccc(OP(=O)(O)O)c12 [psilocybin, [3-[2-(dimethylamino)ethyl]-1H-indol-4-yl]dihydrogen phosphate]
Mice receiving 3 mg/kg psilocybin and no PF-4447943 (vehicle pretreatment), FIG. 1
  average HTR over 10 min: about 30
